{"source": "patent US5837548A", "about": "“Treatment of inflammation by inhibition of lipid body formation” (Beth Israel Hospital, priority 1995, dated 1998)", "key": {"human leukocytes": {"system": "human leukocytes", "experiment": "cytotoxicity / cell viability by trypan blue dye exclusion", "assay_type": "cell-based", "conditions": "neutrophils", "method": "(§1) Human leukocytes (10^6 cells/mL) were incubated with varying concentrations of arachidonic acid (AA), oleic acid (OA) or vehicle at 37° C. in a 5% CO2 /95% O2 atmosphere, and after 1 hour leukocytes (10^5 cells per slide) were cytocentrifuged (550 rpm, 5 min) onto glass slides. During inhibitory studies, neutrophils were pretreated for 1 hour with varying concentrations of enzyme inhibitors, protein synthesis inhibitors, or vehicle as indicated. When PKC inhibitors were used, the pre-incubation time was reduced to 30 minutes to avoid toxic effects to the cells. The cell viability, determined by trypan blue dye exclusion at the end of each experiment, was always greater than 90%. Stock solutions for A23187, D609, U-73122, and indomethacin were prepared in DMSO and stored at -20° C. Aliquots were diluted in Ca^++ /Mg^++ fee HBSS to the indicated concentration immediately prior to use. The final DMSO concentration was always lower than 0.1% and had no effect on lipid body numbers. […] The morphology of fixed cells was observed, and lipid bodies were enumerated with phase contrast microscopy and a 100× objective lens in 50 consecutively scanned leukocytes."}, "human neutrophils": {"system": "human neutrophils", "experiment": "cis-unsaturated fatty acid-induced lipid body formation in human neutrophils (osmium staining, light microscopy enumeration)", "assay_type": "cell-based", "conditions": "for inhibition at 1 µM / inhibition at 10 µM: Homo sapiens, Neutrophil, basal subtracted; for inhibition of arachidonic acid-induced lipid body formation / inhibition of oleic acid-induced lipid body formation: human neutrophils, staurosporine 0.1-1.0 μM, aspirin 10 μg/mL, others as in Tables 1 and 2; for effect on numbers of preformed lipid bodies: neutrophils", "method": "Neutrophils were purified from fresh human blood obtained by venipuncture from healthy adult volunteers and collected into acidified citrate. After addition of 6% dextran 70 (McGaw, Irvine, Calif.), RBCs were allowed to sediment for 1 hour at room temperature. The leukocyte-rich supernatant was overlaid onto an equal volume of Ficoll-Paque gradient (Piscataway, N.J.), and centrifuged at 400×g for 20 min. […] Residual RBCs were lysed with hypotonic saline.\nas §1, with “The cell viability, determined by trypan blue dye exclusion at the end of each experiment, was always greater than 90%.” left out, “use.” for “use. The final DMSO concentration was always lower than 0.1% and had no effect on lipid body numbers.”\nResults were expressed as mean±SEM and were analyzed statistically by means of the analysis of variance followed by the Newman-Keuls-Student test with the level of significance set at p<0.05. Correlation coefficients were determined by linear regression, and correlation analysis was performed by Fisher's r to z transformation with the level of significance set at p<0.05.\n^1 Neutrophils (10^6 /ml) were pretreated with protein kinase C\n(actinomycin D, cycloheximide) for 30 min or with phospholipase C\ninhibitors (D609, U73122) for 1 h. The cells were then stimulated with\nvehicle, arachidonic acid (15 μM), or oleic acid (10 μM), for 1 h.\nResults are mean ± SEM from fifty consecutively counted neutrophils.\nStatistically significant differences between the agonist alone and the\ninhibitor are represented by an asterisk(*). Percent inhibition has been\ncalculated after subtracting out the basal number of lipid bodies/PMN\npresent prior to stimulation.\n^1 Neutrophils (10^6 /ml) were pretreated with the NSAID or\nvehicle for 1 h then stimulated with vehicle, arachidonic acid, or oleic\n± SEM from fifty consecutively counted neutrophils. Statistically\nsignificant differences between the agonist alone and the NSAID are\nrepresented by an asterisk (*). Percent inhibition has been calculated\nafter subtracting out the basal number of lipid bodies/PMN present prior"}, "[1]": {"conditions": "arachidonic acid 15 μM, inhibitor 1 μM"}, "[2]": {"conditions": "arachidonic acid 15 μM, inhibitor 10 μM"}, "[3]": {"conditions": "oleic acid 10 μM, inhibitor 1 μM"}, "[4]": {"conditions": "oleic acid 10 μM, inhibitor 10 μM"}}, "note": "Like-named read-outs stand apart in the source and are kept apart here. *1 amine or outer side, *2 acyl side, *3 side chain or, on linkers, in order; H or OH if unused. Where a SMILES comes first, the peptide text is derived from it. Bridges are numbered along the chain shown (N, C = ends). Roman numbers before positions name the chains, in order. [ ]: non-standard residue; d: D form. Actinocin(9to1) = Cc1c2oc3c(C)ccc(C(=O)[*:1])c3nc-2c(C(=O)[*:2])c(N)c1=O; NMeV = CN[CH](C(=O)O)C(C)C; Sar = CNCC(=O)O"}
{"smiles": "C[C@@H]1C[C@@H]([C@H](O)CC2CC(=O)NC(=O)C2)C(=O)[C@@H](C)C1", "note": "[cycloheximide]", "values": [{"measurement": "cytotoxicity", "setting": "human leukocytes", "result": "not cytotoxic"}, {"measurement": "inhibition at 1 µM", "setting": "human neutrophils; [1]", "result": 17, "unit": "%"}, {"measurement": "inhibition at 10 µM", "setting": "human neutrophils; [2]", "result": 30, "unit": "%"}, {"measurement": "inhibition at 1 µM", "setting": "human neutrophils; [3]", "result": 22, "unit": "%"}, {"measurement": "inhibition at 10 µM", "setting": "human neutrophils; [4]", "result": 38, "unit": "%"}, {"measurement": "lipid bodies (mean ± SEM)/cell", "setting": "human neutrophils; [1]", "result": "9.8 ± 0.3", "unit": "lipid bodies/cell"}, {"measurement": "lipid bodies (mean ± SEM)/cell", "setting": "human neutrophils; [2]", "result": "9.2 ± 0.3", "unit": "lipid bodies/cell"}, {"measurement": "inhibition of arachidonic acid-induced lipid body formation", "setting": "human neutrophils", "result": "significantly inhibited"}, {"measurement": "inhibition of oleic acid-induced lipid body formation", "setting": "human neutrophils", "result": "significantly inhibited"}, {"measurement": "effect on numbers of preformed lipid bodies", "setting": "human neutrophils", "result": "did not alter numbers of preformed lipid bodies"}, {"measurement": "lipid bodies (mean ± SEM)/cell", "setting": "human neutrophils; [3]", "result": "9.0 ± 0.3", "unit": "lipid bodies/cell"}, {"measurement": "lipid bodies (mean ± SEM)/cell", "setting": "human neutrophils; [4]", "result": "8.3 ± 0.3", "unit": "lipid bodies/cell"}]}
{"smiles": "Cc1c2oc3c(C)ccc(C(=O)NC4C(=O)NC(C(C)C)C(=O)N5CCCC5C(=O)N(C)CC(=O)N(C)C(C(C)C)C(=O)OC4C)c3nc-2c(C(=O)NC2C(=O)NC(C(C)C)C(=O)N3CCCC3C(=O)N(C)CC(=O)N(C)C(C(C)C)C(=O)OC2C)c(N)c1=O", "note": "(stereo not drawn) [actinomycin D] (I: TVP[Sar][NMeV] / II: TVP[Sar][NMeV]; ester I:1-I:C, II:1-II:C; linker I:N-II:N via Actinocin(9to1); configuration not given here)", "values": [{"measurement": "cytotoxicity", "setting": "human leukocytes", "result": "not cytotoxic"}, {"measurement": "inhibition at 1 µM", "setting": "human neutrophils; arachidonic acid 15 μM, inhibitor 1 μM, read-out: % inhibition", "result": 47, "unit": "%"}, {"measurement": "inhibition at 10 µM", "setting": "human neutrophils; arachidonic acid 15 μM, inhibitor 10 μM, read-out: % inhibition", "result": 64, "unit": "%"}, {"measurement": "inhibition at 1 µM", "setting": "human neutrophils; oleic acid 10 μM, inhibitor 1 μM, read-out: % inhibition", "result": 26, "unit": "%"}, {"measurement": "inhibition at 10 µM", "setting": "human neutrophils; oleic acid 10 μM, inhibitor 10 μM, read-out: % inhibition", "result": 42, "unit": "%"}, {"measurement": "lipid bodies (mean ± SEM)/cell", "setting": "human neutrophils; [1]", "result": "8.4 ± 0.3", "unit": "lipid bodies/cell"}, {"measurement": "lipid bodies (mean ± SEM)/cell", "setting": "human neutrophils; [2]", "result": "7.6 ± 0.3", "unit": "lipid bodies/cell"}, {"measurement": "inhibition of arachidonic acid-induced lipid body formation", "setting": "human neutrophils", "result": "significantly inhibited"}, {"measurement": "inhibition of oleic acid-induced lipid body formation", "setting": "human neutrophils", "result": "significantly inhibited"}, {"measurement": "effect on numbers of preformed lipid bodies", "setting": "human neutrophils", "result": "did not alter numbers of preformed lipid bodies"}, {"measurement": "lipid bodies (mean ± SEM)/cell", "setting": "human neutrophils; [3]", "result": "8.8 ± 0.3", "unit": "lipid bodies/cell"}, {"measurement": "lipid bodies (mean ± SEM)/cell", "setting": "human neutrophils; [4]", "result": "8.1 ± 0.3", "unit": "lipid bodies/cell"}]}
